Inhibition data for 3 molecules are collected here from publication PMC3956872 (PLoS ONE, 2014).

T1 sequence (Q4DAV2 entry or part of it): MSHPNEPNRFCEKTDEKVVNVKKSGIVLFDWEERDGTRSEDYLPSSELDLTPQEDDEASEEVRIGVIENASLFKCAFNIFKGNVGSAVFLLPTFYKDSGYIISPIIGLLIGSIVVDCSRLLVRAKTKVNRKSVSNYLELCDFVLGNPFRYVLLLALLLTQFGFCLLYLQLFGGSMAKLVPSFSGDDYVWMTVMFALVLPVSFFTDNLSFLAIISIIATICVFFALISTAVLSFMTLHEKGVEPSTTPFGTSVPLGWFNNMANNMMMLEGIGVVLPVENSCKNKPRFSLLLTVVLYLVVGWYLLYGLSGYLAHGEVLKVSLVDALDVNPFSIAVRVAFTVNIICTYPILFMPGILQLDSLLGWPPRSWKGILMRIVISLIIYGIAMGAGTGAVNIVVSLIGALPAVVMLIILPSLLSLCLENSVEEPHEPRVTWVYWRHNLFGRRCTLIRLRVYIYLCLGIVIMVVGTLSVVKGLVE

This assay concerns the target T1, TcAAAP069 (Trypanosoma cruzi, UniProt Q4DAV2).
T1 construct: gene Tc00.1047053504069.120; full-length gene in pTREXL, overexpressed in T. cruzi epimastigotes (also p416/pDR196 in S. cerevisiae MG266 gap1 put4); about 10 transmembrane spans; allele TcAAAP229 has a 62-residue N-terminal extension
Kind of assay: cell-based. Particulars: read-out: % inhibition at 10 mM.
In general, inhibition refers to the change of the read-out against control, counted positive when it falls. In the case of `O=C(O)[C@H]1CCCN1` [D-proline], the inhibition at 10000 µM was 76.3%.
For `O=C(O)[C@@H]1CSCN1` [L-thiazolidine-4-carboxylic acid] the value was 44.2%; for `O=C(O)[C@@H]1C[C@@H](O)CN1` [hydroxyproline], 91.8%.
